Values of other authors in patent US20120058097A1, “COMPOSITIONS INCLUDING A SODIUM CHANNEL BLOCKER AND A B VITAMIN MOLECULE AND METHODS OF USE THEREOF” (MS THERAPEUTICS LIMITED, priority 2010, published 2012).

Assays:
[1] = in vivo
[2] = test system: people with secondary progressive multiple sclerosis

For `Nc1nnc(-c2cccc(Cl)c2Cl)c(N)n1` [lamotrigine, 3,5-diamino-6-(2,3-dichlorophenyl)-1,2,4-triaz-ine], the half life [1] is given as 23 to 36 h, the “deterioration of walking speed” value ([2]; compared to the control group, 120 people with secondary progressive multiple sclerosis) is given as “approximately halve the deterioration of walking speed” and the “MRI measurements of brain volume” value ([2]; primary outcome measure, 2 year trial) is given as “early reduction in brain volume which was reversible over the 2 year course of the trial”.
